From patent publication US9556148B2, “N-cyanomethylamides as inhibitors of janus kinase” (CADILA HEALTHCARE LIMITED, priority 2013, dated 2017) come the findings set out here.

Structures are written as SMILES.

Common to all, as to type: biochemical
In experiment [1] the target is recombinant purified human JAK1 (Homo sapiens (Human), UniProt P23458). In words: in vitro JAK kinase assay on ADP Glo platform, JAK1. The settings on record: 50 μM ATP, 1 hr at room temperature. On the procedure: (§1) NCEs were screened using in vitro JAK (1, 2 and 3) kinase assay on ADP Glo platform (Promega). Fixed amount of recombinant purified human JAK (25 ng of JAK1 and 10 ng of JAK2 and JAK3 per reaction, from Life Technologies Ltd) were incubated with increasing concentration of NCEs in 1× kinase reaction buffer (40 mM Tris-Cl, pH7.5, 20 mM MgCl2, 0.1 mg/ml BSA and 50 μM DTT). Enzymatic reaction was initiated by adding a substrate cocktail containing 50 μM of ATP (final concentration) and 5 μg for JAK1 and 2.5 μg for JAK2 and JAK3 of polyGln4Tyr1 (Signal Chem) in total 25 μl of reaction in 96 well plate. The reaction was incubated at room temperature for 1 hr.
(§2) After 1 hr of incubation equal volume (25 μl per reaction) of ADP Glo was added and incubated at room temperature for 40 min.
(§3) This was followed by addition of kinase detection reagent (50 μl per reaction) and incubation at room temperature for 30 min. Finally, plate was read for luminescence at an integration time of 500 millisecond per well.
(§4) Data were plotted taking Enzyme with no inhibitor set as the 100% kinase activity. IC50 values were calculated using Graph Pad Prism software.
For orientation: ADP-Glo first removes unused ATP, then detects ADP through luciferase.

Experiment [2] concerns the target recombinant purified human JAK3 (Homo sapiens (Human), UniProt P52333). Kind of experiment: in vitro JAK kinase assay on ADP Glo platform, JAK3. Particulars: 50 μM ATP, 1 hr at room temperature; read-out: JAK-3 IC50. On the procedure: as §1, §2, §3, §4
Experiment [3] addresses recombinant purified human JAK2 (Homo sapiens (Human), UniProt O60674). In words: in vitro JAK kinase assay on ADP Glo platform, JAK2. Particulars: 50 μM ATP, 1 hr at room temperature; read-out: JAK-2 IC50. On the procedure:
as §1, §2, §3, §4

Chain of recombinant purified human JAK1 (P23458 whole entry): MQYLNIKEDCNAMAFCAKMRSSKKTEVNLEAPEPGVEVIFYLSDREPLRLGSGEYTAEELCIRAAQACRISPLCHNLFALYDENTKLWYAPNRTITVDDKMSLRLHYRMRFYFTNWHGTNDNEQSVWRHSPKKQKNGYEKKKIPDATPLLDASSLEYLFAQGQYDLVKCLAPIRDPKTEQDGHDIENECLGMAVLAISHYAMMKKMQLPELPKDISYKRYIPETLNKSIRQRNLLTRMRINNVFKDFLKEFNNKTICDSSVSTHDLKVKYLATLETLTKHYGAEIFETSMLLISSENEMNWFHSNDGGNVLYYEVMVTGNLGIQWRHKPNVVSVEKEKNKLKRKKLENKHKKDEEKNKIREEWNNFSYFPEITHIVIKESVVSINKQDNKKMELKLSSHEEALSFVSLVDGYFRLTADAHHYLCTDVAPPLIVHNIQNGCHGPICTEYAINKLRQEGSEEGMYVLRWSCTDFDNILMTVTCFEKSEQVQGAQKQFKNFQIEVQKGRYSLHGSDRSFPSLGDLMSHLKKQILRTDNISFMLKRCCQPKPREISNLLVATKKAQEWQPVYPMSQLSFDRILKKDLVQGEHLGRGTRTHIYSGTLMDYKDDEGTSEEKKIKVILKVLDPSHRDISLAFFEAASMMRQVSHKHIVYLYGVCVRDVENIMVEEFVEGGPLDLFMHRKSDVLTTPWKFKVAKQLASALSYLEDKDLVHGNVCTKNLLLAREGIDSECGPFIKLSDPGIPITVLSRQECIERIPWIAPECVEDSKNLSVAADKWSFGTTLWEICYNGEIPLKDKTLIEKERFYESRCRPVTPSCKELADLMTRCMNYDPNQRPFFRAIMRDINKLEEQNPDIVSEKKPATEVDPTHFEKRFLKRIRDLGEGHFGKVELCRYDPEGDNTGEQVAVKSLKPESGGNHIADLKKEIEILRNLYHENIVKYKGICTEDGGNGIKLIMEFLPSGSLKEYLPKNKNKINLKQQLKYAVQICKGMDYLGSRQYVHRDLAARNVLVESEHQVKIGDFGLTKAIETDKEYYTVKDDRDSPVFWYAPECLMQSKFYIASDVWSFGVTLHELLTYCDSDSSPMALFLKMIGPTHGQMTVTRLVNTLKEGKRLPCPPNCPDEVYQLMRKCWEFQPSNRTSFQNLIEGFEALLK
Chain of recombinant purified human JAK3 (P52333 whole entry): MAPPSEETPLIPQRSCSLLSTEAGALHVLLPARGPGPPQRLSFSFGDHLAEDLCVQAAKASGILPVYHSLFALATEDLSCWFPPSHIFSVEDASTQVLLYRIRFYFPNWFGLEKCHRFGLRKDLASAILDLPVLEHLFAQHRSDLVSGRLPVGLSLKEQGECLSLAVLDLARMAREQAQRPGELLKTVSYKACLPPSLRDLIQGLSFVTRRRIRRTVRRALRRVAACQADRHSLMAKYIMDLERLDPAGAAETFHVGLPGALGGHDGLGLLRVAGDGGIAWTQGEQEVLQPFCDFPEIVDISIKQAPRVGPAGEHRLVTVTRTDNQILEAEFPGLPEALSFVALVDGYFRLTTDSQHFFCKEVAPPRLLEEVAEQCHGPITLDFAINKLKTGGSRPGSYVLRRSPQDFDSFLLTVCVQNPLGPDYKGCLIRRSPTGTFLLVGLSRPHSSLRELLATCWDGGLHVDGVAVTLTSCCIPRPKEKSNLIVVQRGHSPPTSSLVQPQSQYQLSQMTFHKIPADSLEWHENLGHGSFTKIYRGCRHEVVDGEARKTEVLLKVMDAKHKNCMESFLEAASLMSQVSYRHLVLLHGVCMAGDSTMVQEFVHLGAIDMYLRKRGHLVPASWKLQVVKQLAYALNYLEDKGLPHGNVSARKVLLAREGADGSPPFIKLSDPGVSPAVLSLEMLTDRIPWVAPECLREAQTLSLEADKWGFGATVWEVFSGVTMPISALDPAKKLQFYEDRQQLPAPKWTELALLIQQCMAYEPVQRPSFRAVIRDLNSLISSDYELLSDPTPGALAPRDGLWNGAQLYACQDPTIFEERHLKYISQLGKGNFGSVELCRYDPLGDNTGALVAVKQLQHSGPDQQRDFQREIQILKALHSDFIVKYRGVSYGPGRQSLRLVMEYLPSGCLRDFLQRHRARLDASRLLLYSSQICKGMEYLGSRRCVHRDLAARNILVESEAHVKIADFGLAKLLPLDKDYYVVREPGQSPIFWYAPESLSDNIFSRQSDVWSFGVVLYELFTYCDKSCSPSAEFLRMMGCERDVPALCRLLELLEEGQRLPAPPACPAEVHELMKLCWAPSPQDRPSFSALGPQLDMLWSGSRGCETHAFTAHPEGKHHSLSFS
Chain of recombinant purified human JAK2 (O60674 whole entry): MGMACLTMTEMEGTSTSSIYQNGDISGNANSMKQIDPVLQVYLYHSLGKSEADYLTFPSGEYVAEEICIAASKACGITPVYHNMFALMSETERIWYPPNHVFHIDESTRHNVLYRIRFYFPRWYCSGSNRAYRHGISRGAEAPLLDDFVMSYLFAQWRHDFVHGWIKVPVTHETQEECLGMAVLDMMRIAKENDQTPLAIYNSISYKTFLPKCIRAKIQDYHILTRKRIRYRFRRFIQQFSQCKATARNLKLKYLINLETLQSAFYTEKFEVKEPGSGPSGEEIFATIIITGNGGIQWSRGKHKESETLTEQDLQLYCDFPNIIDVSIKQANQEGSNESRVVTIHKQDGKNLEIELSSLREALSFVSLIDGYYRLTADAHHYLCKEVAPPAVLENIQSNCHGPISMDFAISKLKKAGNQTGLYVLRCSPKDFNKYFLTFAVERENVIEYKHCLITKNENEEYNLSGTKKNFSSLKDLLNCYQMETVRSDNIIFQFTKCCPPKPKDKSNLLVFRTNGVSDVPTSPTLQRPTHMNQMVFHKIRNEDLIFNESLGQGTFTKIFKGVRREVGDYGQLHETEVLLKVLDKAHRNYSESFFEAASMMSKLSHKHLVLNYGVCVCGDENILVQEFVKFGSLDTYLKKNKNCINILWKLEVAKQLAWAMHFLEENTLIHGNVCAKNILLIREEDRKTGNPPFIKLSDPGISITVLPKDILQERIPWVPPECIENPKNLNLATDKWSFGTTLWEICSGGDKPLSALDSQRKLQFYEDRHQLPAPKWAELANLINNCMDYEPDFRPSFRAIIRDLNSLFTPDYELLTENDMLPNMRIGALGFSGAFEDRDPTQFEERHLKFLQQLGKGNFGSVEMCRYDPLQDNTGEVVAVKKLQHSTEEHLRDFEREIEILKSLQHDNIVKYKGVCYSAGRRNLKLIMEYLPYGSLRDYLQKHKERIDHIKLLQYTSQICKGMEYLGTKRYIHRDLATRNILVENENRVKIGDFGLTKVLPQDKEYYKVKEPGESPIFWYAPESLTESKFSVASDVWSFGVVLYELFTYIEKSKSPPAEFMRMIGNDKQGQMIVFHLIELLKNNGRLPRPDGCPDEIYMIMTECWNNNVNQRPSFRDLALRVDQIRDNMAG

`N#CCNC(=O)c1ccc(-c2ccnc(Nc3ccc(N4CCC(N5CCCS5(=O)=O)CC4)cc3)n2)cc1` [Example 2, N-(cyanomethyl)-4-(2-((4-(4-(1,1-dioxidoisothiazolidin-2-yl)piperidin-1-yl)phenyl)amino)pyrimidin-4-yl)benzamide]: the figures for the IC50 in experiment [1], in experiment [2] and in experiment [3] were 0.0051 µM, 0.051 µM and 0.004 µM, respectively.

For the compound `N#CCNC(=O)c1ccc(-c2ccnc(Nc3ccc(N4CCC(N5CCCC5)C4)cc3)n2)cc1` (stereo not drawn) [Example 6, 4-(2-((4-([1,3′-Bipyrrolidin]-1′-yl)phenyl)amino)pyrimidin-4-yl)-N-(cyanomethyl)benzamide], the IC50 (usually the concentration at which inhibition is half-maximal) in experiment [1] was determined as 0.016 µM; in experiment [2], 0.155 µM; in experiment [3], 0.019 µM.

As to `N#CCNC(=O)c1ccc(-c2ccnc(Nc3ccc(N4CCN(C5CCS(=O)(=O)CC5)CC4)cc3)n2)cc1` [Example 7, N-(cyanomethyl)-4-(2-((4-(4-(1,1-dioxidotetrahydro-2H-thiopyran-4-yl)piperazin-1-yl)phenyl)amino)pyrimidin-4-yl)benzamide], the results for the IC50 in experiment [1], in experiment [2] and in experiment [3] were 0.014 µM, 0.062 µM and 0.012 µM, respectively.

`N#CCNC(=O)c1ccc(-c2ccnc(Nc3ccc(N4CCN(C5CCS(=O)(=O)C5)CC4)cc3)n2)cc1` (stereo not drawn) [Example 9, N-(cyanomethyl)-4-(2-((4-(4-(1,1-dioxidotetrahydrothiophen-3-yl)piperazin-1-yl)phenyl)amino)pyrimidin-4-yl)benzamide]: the results for the IC50 in experiment [1], in experiment [2] and in experiment [3] were 0.014 µM, 0.04 µM and 0.008 µM, respectively.

`N#CCNC(=O)c1ccc(-c2ccnc(Nc3ccc(N4CCC(N5CCOC5=O)CC4)cc3)n2)cc1` [Example 12, N-(cyanomethyl)-4-(2-((4-(4-(2-oxooxazolidin-3-yl)piperidin-1-yl)phenyl)amino)pyrimidin-4-yl)benzamide]: the IC50 in experiment [1] amounted to 0.025 µM; in experiment [2] it was 0.078 µM.

In the case of `N#CCNC(=O)c1ccc(-c2ccnc(Nc3ccc(N4CCN(C5CCOCC5)CC4)cc3)n2)cc1` [Example 15, N-(cyanomethyl)-4-(2-((4-(4-(tetrahydro-2H-pyran-4-yl)piperazin-1-yl)phenyl)amino)pyrimidin-4-yl)benzamide], the IC50 in experiment [1] was 0.016 µM; in experiment [2], 0.088 µM; in experiment [3], 0.011 µM.

As to `N#CCNC(=O)c1ccc(-c2ccnc(Nc3ccc(N4CCC(N5CCNC5=O)CC4)cc3)n2)cc1` [Example 18, N-(cyanomethyl)-4-(2-((4-(4-(2-oxoimidazolidin-1-yl)piperidin-1-yl)phenyl)amino)pyrimidin-4-yl)benzamide], the IC50 in experiment [1] stood at 0.009 µM; in experiment [2], 0.05 µM; in experiment [3], 0.011 µM.

Take `N#CCNC(=O)c1ccc(-c2ccnc(Nc3ccc(N4CCC(c5nnco5)CC4)cc3)n2)cc1` [Example 19, 4-(2-((4-(4-(1,3,4-oxadiazol-2-yl)piperidin-1-yl)phenyl)amino)pyrimidin-4-yl)-N-(cyanomethyl)benzamide]: the results for the 50% inhibitory concentration (IC50) in experiment [1], in experiment [2] and in experiment [3] were 0.01 µM, 0.04 µM and 0.007 µM, respectively.

For the compound `N#CCNC(=O)c1ccc(-c2ccnc(Nc3ccc(N4CCC(N5CC6OCCOC6C5)CC4)cc3)n2)cc1` (stereo not drawn) [Example 27, N-(cyanomethyl)-4-(2-((4-(4-(tetrahydro-2H-[1,4]dioxino[2,3-c]pyrrol-6(3H)-yl)piperidin-1-yl)phenyl)amino)pyrimidin-4-yl)benzamide], the IC50 in experiment [1] was 0.01 µM; in experiment [2], 0.049 µM; in experiment [3], 0.005 µM.

For `N#CCNC(=O)c1ccc(-c2ccnc(Nc3ccc(N4CCC(N5CCC6(CCC(=O)O6)CC5)CC4)cc3)n2)cc1` [Example 28, N-(cyanomethyl)-4-(2-((4-(4-(2-oxo-1-oxa-8-azaspiro[4.5]decan-8-yl)piperidin-1-yl)phenyl)amino)pyrimidin-4-yl)benzamide], the IC50 in experiment [1] was determined as 0.011 µM; in experiment [2] it was 0.055 µM; in experiment [3], 0.006 µM.

For the compound `COc1nnc(C2CCN(c3ccc(Nc4nccc(-c5ccc(C(=O)NCC#N)cc5)n4)cc3)CC2)o1` [Example 31, N-(cyanomethyl)-4-(2-((4-(4-(5-methoxy-1,3,4-oxadiazol-2-yl)piperidin-1-yl)phenyl)amino)pyrimidin-4-yl)benzamide], the IC50 was 0.02 µM in experiment [1], 0.074 µM in experiment [2] and 0.017 µM in experiment [3].

Consider `N#CCNC(=O)c1ccc(-c2ccnc(Nc3ccc(N4CCN(C5=NCCN5)CC4)cc3)n2)cc1` [Example 33, N-(cyanomethyl)-4-(2-((4-(4-(4,5-dihydro-1H-imidazol-2-yl)piperazin-1-yl)phenyl)amino)pyrimidin-4-yl)benzamide], for which the IC50 was 0.02 µM in experiment [1], 0.054 µM in experiment [2] and 0.011 µM in experiment [3].

As for `N#CCNC(=O)c1ccc(-c2ccnc(Nc3ccc(N4CCC(N5CC6OCCOC6C5)C4)cc3)n2)cc1` (stereo not drawn) [Example 35, N-(cyanomethyl)-4-(2-((4-(3-(tetrahydro-2H-[1,4]dioxino[2,3-c]pyrrol-6(3H)-yl)pyrrolidin-1-yl)phenyl)amino)pyrimidin-4-yl)benzamide], the IC50 in experiment [1] is 0.015 µM; in experiment [2], 0.138 µM; in experiment [3], 0.021 µM.

`Cc1nnc(N2CCN(c3ccc(Nc4nccc(-c5ccc(C(=O)NCC#N)cc5)n4)cc3)CC2)o1` [Example 36, N-(cyanomethyl)-4-(2-((4-(4-(5-methyl-1,3,4-oxadiazol-2-yl)piperazin-1-yl)phenyl)amino)pyrimidin-4-yl)benzamide]: the IC50 in experiment [1] was 0.0092 µM; in experiment [2] it was 0.0469 µM.

Regarding `CC(=O)N1C2CC1CN(C1CCN(c3ccc(Nc4nccc(-c5ccc(C(=O)NCC#N)cc5)n4)cc3)CC1)C2` [Example 39, 4-(2-((4-(4-(6-acetyl-3,6-diazabicyclo[3.1.1]heptan-3-yl)piperidin-1-yl)phenyl)amino)pyrimidin-4-yl)-N-(cyanomethyl)benzamide], the IC50 in experiment [1] was 0.0088 µM; in experiment [2], 0.0507 µM.

For `Cc1cnc(Nc2ccc(N3CCC(N4CCOCC4)CC3)cc2)nc1-c1ccc(C(=O)NCC#N)cc1` [Example 40, N-(cyanomethyl)-4-(5-methyl-2-((4-(4-morpholinopiperidin-1-yl)phenyl)amino)pyrimidin-4-yl)benzamide], the IC50 is 0.0013 µM in experiment [1], 0.032 µM in experiment [2] and 0.0028 µM in experiment [3].

Take `Cc1cnc(Nc2ccc(N3CCC(N4CCCC4=O)CC3)cc2)nc1-c1ccc(C(=O)NCC#N)cc1` [Example 41, N-(cyanomethyl)-4-(5-methyl-2-((4-(4-(2-oxopyrrolidin-1-yl)piperidin-1-yl)phenyl)amino)pyrimidin-4-yl)benzamide]: the IC50 in experiment [1] came out at 0.0006 µM; in experiment [2], 0.0107 µM; in experiment [3], 0.0025 µM.

For `Cc1cnc(Nc2ccc(N3CCC(N4CCC5(CCCO5)CC4)CC3)cc2)nc1-c1ccc(C(=O)NCC#N)cc1` [Example 42, 4-(2-((4-(4-(1-oxa-8-azaspiro[4.5]decan-8-yl)piperidin-1-yl)phenyl)amino)-5-methylpyrimidin-4-yl)-N-(cyanomethyl)benzamide], the IC50 came to 0.0025 µM in experiment [1], 0.059 µM in experiment [2] and 0.0043 µM in experiment [3].
